According to BindingDB's records for doi:10.1021/jm9903139 (Departement D'Ingenierie Et D'Etudes Des Proteines, 2000):
Starred links: 1 amine or outer side, 2 acyl side, 3 side chain; linkers in the order of their positions; H or OH if unused. Non-standard residues stand in square brackets, D forms with d. Residues, ends and D or L forms follow the SMILES beside them. *: point of attachment. NHCH2CHPh2 = c1ccc(C(CN*)c2ccccc2)cc1; pNA = O=[N+]([O-])c1ccc(N*)cc1; NHPhenethyl = c1ccc(CCN*)cc1; Suc = O=C(CCC(=O)[*:2])[*:1]; Orn = NCCC[C@H](N)C(=O)O

Target: Peptidyl-prolyl cis-trans isomerase A (cyclophilin A, hCyp-18) (Homo sapiens) (UniProt P62937)
Sequence (P62937 whole entry, looked up): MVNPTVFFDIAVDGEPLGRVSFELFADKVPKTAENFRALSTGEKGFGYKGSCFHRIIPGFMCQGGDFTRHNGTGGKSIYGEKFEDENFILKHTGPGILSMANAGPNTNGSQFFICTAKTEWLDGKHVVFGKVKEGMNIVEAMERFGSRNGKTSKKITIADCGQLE
Assay: 50% inhibitory concentration of competitive binding against hCyp-18 PPIase activity using uncoupled assay

SMILES	IC50
CC[C@@H]1/C=C(\C)C[C@H](C)C[C@H](OC)[C@H]2O[C@@](O)(C(=O)C(=O)N3CCCC[C@H]3C(=O)O[C@H](/C(C)=C/[C@@H]3CC[C@@H](O)[C@H](OC)C3)[C@H](C)[C@@H](O)CC1=O)[C@H](C)C[C@@H]2OC	8 µM
CC[C@H](C)[C@H](NC(=O)[C@@H]1CCCN1C(=O)CNC(=O)[C@H](C)NC(=O)[C@H](Cc1cnc[nH]1)NC(=O)[C@@H](NC(C)=O)C(C)C)C(=O)NCC(c1ccccc1)c1ccccc1 (Ac-VHAGPI-NHCH2CHPh2)	365 µM
CC[C@H](C)[C@H](NC(=O)[C@@H]1CCCN1C(=O)CNC(=O)[C@H](C)NC(=O)[C@H](CCCN)NC(=O)[C@@H](NC(C)=O)C(C)C)C(=O)N[C@@H](C)C(N)=O [1-(2-{2-[2-(2-Acetylamino-3-methyl-butyrylamino)-5-amino-pentanoylamino]-propionylamino}-acetyl)-pyrrolidine-2-carboxylic acid [1-(1-carbamoyl-ethylcarbamoyl)-2-methyl-butyl]-amide] (Ac-V[Orn]AGPIA-NH2)	> 10000 µM
C[C@H](NC(=O)CCC(=O)O)C(=O)N[C@@H](C)C(=O)N1CCC[C@H]1C(=O)N[C@@H](Cc1ccccc1)C(=O)Nc1ccc([N+](=O)[O-])cc1 [N-[1-(1-Methyl-2-{2-[1-(4-nitro-phenylcarbamoyl)-2-phenyl-ethylcarbamoyl]-pyrrolidin-1-yl}-2-oxo-ethylcarbamoyl)-ethyl]-succinamic acid] (Suc-AAPF-pNA)	850 µM
CC[C@H](C)[C@H](NC(=O)[C@@H]1CCCN1C(=O)CNC(=O)[C@H](C)NC(=O)[C@H](Cc1cnc[nH]1)NC(=O)[C@@H](NC(C)=O)C(C)C)C(=O)NCCc1ccccc1 (Ac-VHAGPI-NHPhenethyl)	325 µM
